pIC50, pKi: −log10 of the molar value.
Key:
[1] = test system: Human platelet aggregation caused by ADP; assay: Inhibition of ADP-induced platelet aggregation (Mimic-human PRP); assay type: cell-based; settings: 20 μM ADP, human platelet concentrate diluted with PPP, absorption at 595 nm
In short: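 Ki came from non-linear sigmoidal fits of inhibition, measured as the 3-min rise in absorbance at 595 nm after 20 μM ADP, relative to 0/20 μM ADP controls. Platelets (3–4×10^8/mL in PPP-diluted human PRP) were exposed to 0.01–30 μM compound for 20 min at room temperature beforehand.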

Human P2Y12 receptor = biological target: T1, Human P2Y12 receptor (Homo sapiens, UniProt Q9H244); assay: Human P2Y12 receptor cell membrane binding assay with [3H] 2-Mes-ADP; settings: 1 nM [3H] 2-Mes-ADP, membranes of HEK cells expressing P2Y12 receptor; read-out: Binding activity (IC50)
T1 construct: expressed in transfected cells; host or cells: HEK cells
In short: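 Competition binding used 1 nM [3H]2-MeS-ADP on P2Y12-expressing HEK cell membranes for 1 h at room temperature, followed by filtration and scintillation counting.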

T1 sequence (Q9H244 whole entry): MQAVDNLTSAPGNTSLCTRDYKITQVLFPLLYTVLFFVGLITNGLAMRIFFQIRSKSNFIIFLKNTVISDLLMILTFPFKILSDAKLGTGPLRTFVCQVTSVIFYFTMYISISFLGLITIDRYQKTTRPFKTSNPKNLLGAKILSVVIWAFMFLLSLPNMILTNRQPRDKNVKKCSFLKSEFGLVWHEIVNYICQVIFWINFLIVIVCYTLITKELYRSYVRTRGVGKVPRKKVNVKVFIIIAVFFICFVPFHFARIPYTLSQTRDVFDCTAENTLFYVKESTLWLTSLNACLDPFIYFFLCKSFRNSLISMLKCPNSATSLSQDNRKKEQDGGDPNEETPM

SMILES	pKi [1]	pIC50 (Human P2Y12 receptor)
CCCc1cc2c(N3CCn4c(nnc4C(F)(F)F)C3)nc(Nc3ccccc3)nc2s1 [Example 1-36, Phenyl-[6-propyl-4-(3-trifluoromethyl-5,6-dihydro-8H-[1,2,4]triazolo[4,3-a]pyrazin-7-yl)-thieno[2,3-d]pyrimidin-2-yl]-amine]	5.92	6.77
CCCc1cc2c(N3CCn4c(nnc4C(F)(F)F)C3)nc(Nc3ncccn3)nc2s1 [Example 1-37, [6-Propyl-4-(3-trifluoromethyl-5,6-dihydro-8H-[1,2,4]triazolo[4,3-a]pyrazin-7-yl)-thieno[2,3-d]pyrimidin-2-yl]-pyrimidin-2-yl-amine]	6.07	6.26
CCCc1cc2c(N3CCn4c(nnc4C(F)(F)F)C3)nc(N3CCN(c4ccc(O)cc4)CC3)nc2s1 [Example 1-38, 4-{4-[6-Propyl-4-(3-trifluoromethyl-5,6-dihydro-8H-[1,2,4]triazolo[4,3-a]pyrazin-7-yl)-thieno[2,3-d]pyrimidin-2-yl]-piperazin-1-yl}-phenol]	6.74	7.00
CCCc1cc2c(N3CCn4c(nnc4C(F)(F)F)C3)nc(N3CCN(c4cccc(O)c4)CC3)nc2s1 [Example 1-39, 3-{4-[6-Propyl-4-(3-trifluoromethyl-5,6-dihydro-8H-[1,2,4]triazolo[4,3-a]pyrazin-7-yl)-thieno[2,3-d]pyrimidin-2-yl]-piperazin-1-yl}-phenol]	6.26	6.85
CCCc1cc2c(N3CCn4c(nnc4C(F)(F)F)C3)nc(N3CCN(C4CCCC4)CC3)nc2s1 [Example 1-40, 7-[2-(4-Cyclopentyl-piperazin-1-yl)-6-propyl-thieno[2,3-d]pyrimidin-4-yl]-3-trifluoromethyl-5,6,7,8-tetrahydro-[1,2,4]triazolo[4,3-a]pyrazine]	6.76	6.70
CCCc1cc2c(N3CCn4c(nnc4C(F)(F)F)C3)nc(N3CCN(CC4CCCC4)CC3)nc2s1 [Example 1-41, 7-[2-(4-Cyclopentylmethyl-piperazin-1-yl)-6-propyl-thieno[2,3-d]pyrimidin-4-yl]-3-trifluoromethyl-5,6,7,8-tetrahydro-[1,2,4]triazolo[4,3-a]pyrazine]	5.80	6.27
CCCc1cc2c(N3CCn4c(nnc4C(F)(F)F)C3)nc(N3CCN(CC4CCCCC4)CC3)nc2s1 [Example 1-42, 7-[2-(4-Cyclohexylmethyl-piperazin-1-yl)-6-propyl-thieno[2,3-d]pyrimidin-4-yl]-3-trifluoromethyl-5,6,7,8-tetrahydro-[1,2,4]triazolo[4,3-a]pyrazine]	5.14	5.93
CCCc1cc2c(N3CCn4c(nnc4C(F)(F)F)C3)nc(NCCC(=O)OCC)nc2s1 [Example 1-43, 3-[6-Propyl-4-(3-trifluoromethyl-5,6-dihydro-8H-[1,2,4]triazolo[4,3-a]pyrazin-7-yl)-thieno[2,3-d]pyrimidin-2-ylamino]-propionic acid ethyl ester]	6.17	6.87
CCCc1cc2c(N3CCn4c(nnc4C(F)(F)F)C3)nc(NCCC(=O)O)nc2s1 [Example 1-44, 3-[6-Propyl-4-(3-trifluoromethyl-5,6-dihydro-8H-[1,2,4]triazolo[4,3-a]pyrazin-7-yl)-thieno[2,3-d]pyrimidin-2-ylamino]-propionic acid]	6.59	7.23
CCCc1cc2c(N3CCn4c(nnc4C(F)(F)F)C3)nc(N3CCCC(C(=O)OCC)C3)nc2s1 (centres unmarked) [Example 1-45, 1-[6-Propyl-4-(3-trifluoromethyl-5,6-dihydro-8H-[1,2,4]triazolo[4,3-a]pyrazin-7-yl)-thieno[2,3-d]pyrimidin-2-yl]-piperidine-3-carboxylic acid ethyl ester]	6.00	6.47
CCCc1cc2c(N3CCn4c(nnc4C(F)(F)F)C3)nc(N3CCCC(C(=O)O)C3)nc2s1 (centres unmarked) [Example 1-46, 1-[6-Propyl-4-(3-trifluoromethyl-5,6-dihydro-8H-[1,2,4]triazolo[4,3-a]pyrazin-7-yl)-thieno[2,3-d]pyrimidin-2-yl]-piperidine-3-carboxylic acid]	7.24	7.68
CCCc1cc2c(N3CCn4c(nnc4C(F)(F)F)C3)nc(N3CCCC(C(=O)OC(C)C)C3)nc2s1 (centres unmarked) [Example 1-47, 1-[6-Propyl-4-(3-trifluoromethyl-5,6-dihydro-8H-[1,2,4]triazolo[4,3-a]pyrazin-7-yl)-thieno[2,3-d]pyrimidin-2-yl]-piperidine-3-carboxylic acid isopropyl ester]	5.72	6.55
CCCc1cc2c(N3CCn4c(nnc4C(F)(F)F)C3)nc(N3CCCC(C(=O)OCOC(=O)C(C)(C)C)C3)nc2s1 (centres unmarked) [Example 1-48, 1-[6-Propyl-4-(3-trifluoromethyl-5,6-dihydro-8H-[1,2,4]triazolo[4,3-a]pyrazin-7-yl)-thieno[2,3-d]pyrimidin-2-yl]-piperidine-3-carboxylic acid 2,2-dimethyl-propionyloxymethyl ester]	5.89	6.40
CCCc1cc2c(N3CCn4c(nnc4C(F)(F)F)C3)nc(N3CCC[C@H]3C(=O)OC)nc2s1 [Example 1-49, (S)-1-[6-Propyl-4-(3-trifluoromethyl-5,6-dihydro-8H-[1,2,4]triazolo[4,3-a]pyrazin-7-yl)-thieno[2,3-d]pyrimidin-2-yl]-pyrrolidine-2-carboxylic acid methyl ester]	6.64	7.01
CCCc1cc2c(N3CCn4c(nnc4C(F)(F)F)C3)nc(N3CCC[C@H]3C(=O)O)nc2s1 [Example 1-50, (S)-1-[6-Propyl-4-(3-trifluoromethyl-5,6-dihydro-8H-[1,2,4]triazolo[4,3-a]pyrazin-7-yl)-thieno[2,3-d]pyrimidin-2-yl]-pyrrolidine-2-carboxylic acid]	7.40	6.96
CCCc1cc2c(N3CCn4c(nnc4C(F)(F)F)C3)nc(N3CCC[C@H]3C(=O)OC(C)C)nc2s1 [Example 1-51, (S)-1-[6-Propyl-4-(3-trifluoromethyl-5,6-dihydro-8H-[1,2,4]triazolo[4,3-a]pyrazin-7-yl)-thieno[2,3-d]pyrimidin-2-yl]-pyrrolidine-2-carboxylic acid isopropyl ester]	6.10	6.66
CCCc1cc2c(N3CCn4c(nnc4C(F)(F)F)C3)nc(N3CCC[C@H]3C(=O)OCOC(=O)C(C)(C)C)nc2s1 [Example 1-52, (S)-1-[6-Propyl-4-(3-trifluoromethyl-5,6-dihydro-8H-[1,2,4]triazolo[4,3-a]pyrazin-7-yl)-thieno[2,3-d]pyrimidin-2-yl]-pyrrolidine-2-carboxylic acid 2,2-dimethyl-propionyloxymethyl ester]	< 5.40	5.99
CCCc1cc2c(N3CCn4c(nnc4C(F)(F)F)C3)nc(N3CCC[C@@H]3C(=O)O)nc2s1 [Example 1-54, (R)-1-[6-Propyl-4-(3-trifluoromethyl-5,6-dihydro-8H-[1,2,4]triazolo[4,3-a]pyrazin-7-yl)-thieno[2,3-d]pyrimidin-2-yl]-pyrrolidine-2-carboxylic acid]	6.89	6.84
CCCc1cc2c(N3CCn4c(nnc4C(F)(F)F)C3)nc(N3CCC(C#N)C3)nc2s1 (centres unmarked) [Example 1-55, 1-[6-Propyl-4-(3-trifluoromethyl-5,6-dihydro-8H-[1,2,4]triazolo[4,3-a]pyrazin-7-yl)-thieno[2,3-d]pyrimidin-2-yl]-pyrrolidine-3-carbonitrile]	7.57	7.22

Reference: patent publication US20110166121A1 (LG LIFE SCIENCES LTD., priority 2008, published 2011)
